The data set deals with CCRIS mutagenicity, Ames/micronucleus/aberration tests. The experiment in a line: CCRIS mutagenicity studies.
The mark [1] stands for this setting: Test System: AMES SALMONELLA TYPHIMURIUM, Strain/Indicator: TA98, Metabolic Activation: NONE, Method: PREINCUBATION
The mark [2] stands for this setting: Test System: AMES SALMONELLA TYPHIMURIUM, Strain/Indicator: TA98, Metabolic Activation: NONE, Method: STANDARD PLATE.
The mark [3] stands for this setting: Test System: AMES SALMONELLA TYPHIMURIUM, Strain/Indicator: TA98, Metabolic Activation: RAT, LIVER, S-9, AROCLOR 1254, Method: STANDARD PLATE.
Where [4] appears, read: Test System: AMES SALMONELLA TYPHIMURIUM, Strain/Indicator: TA100, Metabolic Activation: NONE, Method: PREINCUBATION
Where [5] appears, read: Test System: AMES SALMONELLA TYPHIMURIUM, Strain/Indicator: TA100, Metabolic Activation: NONE, Method: STANDARD PLATE.
Where [6] appears, read: Test System: AMES SALMONELLA TYPHIMURIUM, Strain/Indicator: TA100, Metabolic Activation: RAT, LIVER, S-9, AROCLOR 1254, Method: STANDARD PLATE.
[7] abbreviates: Test System: AMES SALMONELLA TYPHIMURIUM, Strain/Indicator: TA1535, Metabolic Activation: NONE, Method: STANDARD PLATE.
Setting [8] is: Test System: AMES SALMONELLA TYPHIMURIUM, Strain/Indicator: TA1535, Metabolic Activation: RAT, LIVER, S-9, AROCLOR 1254, Method: STANDARD PLATE.
[9] abbreviates: Test System: AMES SALMONELLA TYPHIMURIUM, Strain/Indicator: TA1537, Metabolic Activation: NONE, Method: STANDARD PLATE.
Where [10] appears, read: Test System: AMES SALMONELLA TYPHIMURIUM, Strain/Indicator: TA1537, Metabolic Activation: RAT, LIVER, S-9, AROCLOR 1254, Method: STANDARD PLATE.
[11] abbreviates: Test System: AMES SALMONELLA TYPHIMURIUM, Strain/Indicator: TA1538, Metabolic Activation: NONE, Method: STANDARD PLATE.
The mark [12] stands for this setting: Test System: AMES SALMONELLA TYPHIMURIUM, Strain/Indicator: TA1538, Metabolic Activation: RAT, LIVER, S-9, AROCLOR 1254, Method: STANDARD PLATE.

Active and inactive are the calls of the source. The rule behind the calls is not given here.

`CCOC(=O)C1OC1c1ccccc1` (stereo not given): the mutagenic call runs as follows: (Test System: AMES SALMONELLA TYPHIMURIUM, Strain/Indicator: TA98, Metabolic Activation: HAMSTER, LIVER, S-9, AROCLOR 1254 (10%), Method: PREINCUBATION) “inactive; negative”; under setting [1], “inactive; negative”; under setting [2], “inactive; negative”; (Test System: AMES SALMONELLA TYPHIMURIUM, Strain/Indicator: TA98, Metabolic Activation: RAT, LIVER, S-9, AROCLOR 1254 (10%), Method: PREINCUBATION) “inactive; negative”; under setting [3], “inactive; negative”; (Test System: AMES SALMONELLA TYPHIMURIUM, Strain/Indicator: TA100, Metabolic Activation: HAMSTER, LIVER, S-9, AROCLOR 1254 (10%), Method: PREINCUBATION) “inactive; negative”. The mutagenic call under setting [4] is “inactive; negative”; the mutagenic call under setting [5] is “inactive; negative”; the mutagenic call (Test System: AMES SALMONELLA TYPHIMURIUM, Strain/Indicator: TA100, Metabolic Activation: RAT, LIVER, S-9, AROCLOR 1254 (10%), Method: PREINCUBATION) was “inactive; negative”; the mutagenic call under setting [6] is “active; positive”; the mutagenic call (Test System: AMES SALMONELLA TYPHIMURIUM, Strain/Indicator: TA1535, Metabolic Activation: HAMSTER, LIVER, S-9, AROCLOR 1254 (10%), Method: PREINCUBATION) is “inactive; negative”; the mutagenic call (Test System: AMES SALMONELLA TYPHIMURIUM, Strain/Indicator: TA1535, Metabolic Activation: NONE, Method: PREINCUBATION) was “inactive; negative”. The mutagenic call under setting [7] was “inactive; negative”; the mutagenic call (Test System: AMES SALMONELLA TYPHIMURIUM, Strain/Indicator: TA1535, Metabolic Activation: RAT, LIVER, S-9, AROCLOR 1254 (10%), Method: PREINCUBATION) was “inactive; negative”; the mutagenic call under setting [8] is “inactive; negative”; the mutagenic call (Test System: AMES SALMONELLA TYPHIMURIUM, Strain/Indicator: TA1537, Metabolic Activation: HAMSTER, LIVER, S-9, AROCLOR 1254 (10%), Method: PREINCUBATION) was “inactive; negative”; the mutagenic call (Test System: AMES SALMONELLA TYPHIMURIUM, Strain/Indicator: TA1537, Metabolic Activation: NONE, Method: PREINCUBATION) is “inactive; negative”; the mutagenic call under setting [9] is “inactive; negative”. In addition, the mutagenic call runs as follows: (Test System: AMES SALMONELLA TYPHIMURIUM, Strain/Indicator: TA1537, Metabolic Activation: RAT, LIVER, S-9, AROCLOR 1254 (10%), Method: PREINCUBATION) “inactive; negative”; under setting [10], “inactive; negative”; under setting [11], “inactive; negative”; under setting [12], “inactive; negative”; (Test System: CHINESE HAMSTER OVARY, Strain/Indicator: CHO-K1-BH4/6-THIOGUANINE, Metabolic Activation: NONE) “active; positive”; (Test System: CHINESE HAMSTER OVARY, Strain/Indicator: CHO-K1-BH4/6-THIOGUANINE, Metabolic Activation: RAT, LIVER, S-9, AROCLOR 1254) “active; positive”.
As for `c1ccc(-c2ccccn2)nc1`, the mutagenic call (Test System: AMES SALMONELLA TYPHIMURIUM, Strain/Indicator: TA97, Metabolic Activation: RAT, LIVER, S-9, PHENOBARBITAL, Method: STANDARD PLATE) is “active; positive”; the mutagenic call (Test System: AMES SALMONELLA TYPHIMURIUM, Strain/Indicator: TA98, Metabolic Activation: RAT, LIVER, S-9, PHENOBARBITAL, Method: STANDARD PLATE) is “active; positive”; the mutagenic call (Test System: AMES SALMONELLA TYPHIMURIUM, Strain/Indicator: TA100, Metabolic Activation: RAT, LIVER, S-9, PHENOBARBITAL, Method: STANDARD PLATE) was “active; positive”; the mutagenic call (Test System: AMES SALMONELLA TYPHIMURIUM, Strain/Indicator: TA1535, Metabolic Activation: RAT, LIVER, S-9, PHENOBARBITAL, Method: STANDARD PLATE) was “inactive; negative”; the mutagenic call (Test System: AMES SALMONELLA TYPHIMURIUM, Strain/Indicator: TA1537, Metabolic Activation: RAT, LIVER, S-9, PHENOBARBITAL, Method: STANDARD PLATE) was “inactive; negative”; the mutagenic call (Test System: AMES SALMONELLA TYPHIMURIUM, Strain/Indicator: TA1538, Metabolic Activation: RAT, LIVER, S-9, PHENOBARBITAL, Method: STANDARD PLATE) is “inactive; negative”.
For the compound `Cc1cc2nc3c(=O)[nH]c(=O)nc-3n(C[C@H](O)[C@H](O)[C@H](O)CO)c2cc1C`, the mutagenic call (End Point: IN VIVO MICRONUCLEUS, Test System: BONE MARROW POLYCHROMATIC ERYTHROCYTES, Species: MOUSE, Strain/Sex: DDY/MALE, Route: IP) is “inactive; negative”; the mutagenic call (Test System: AMES SALMONELLA TYPHIMURIUM, Strain/Indicator: TA97A, Metabolic Activation: NONE, Method: PREINCUBATION) is “inactive; negative”; the mutagenic call (Test System: AMES SALMONELLA TYPHIMURIUM, Strain/Indicator: TA97A, Metabolic Activation: RAT, CECAL CELL-FREE EXTRACT, Method: PREINCUBATION) is “inactive; negative”; the mutagenic call (Test System: AMES SALMONELLA TYPHIMURIUM, Strain/Indicator: TA97A, Metabolic Activation: RAT, LIVER, S9, AROCLOR 1254, Method: PREINCUBATION) was “inactive; negative”; the mutagenic call under setting [1] was “inactive; negative”; the mutagenic call (Test System: AMES SALMONELLA TYPHIMURIUM, Strain/Indicator: TA98, Metabolic Activation: RAT, CECAL CELL-FREE EXTRACT, Method: PREINCUBATION) was “inactive; negative”. In addition, the mutagenic call reads like this: (Test System: AMES SALMONELLA TYPHIMURIUM, Strain/Indicator: TA98, Metabolic Activation: RAT, LIVER, S9, AROCLOR 1254, Method: PREINCUBATION) “inactive; negative”; under setting [4], “inactive; negative”; (Test System: AMES SALMONELLA TYPHIMURIUM, Strain/Indicator: TA100, Metabolic Activation: RAT, CECAL CELL-FREE EXTRACT, Method: PREINCUBATION) “inactive; negative”; (Test System: AMES SALMONELLA TYPHIMURIUM, Strain/Indicator: TA100, Metabolic Activation: RAT, LIVER, S9, AROCLOR 1254, Method: PREINCUBATION) “inactive; negative”; (Test System: AMES SALMONELLA TYPHIMURIUM, Strain/Indicator: TA102, Metabolic Activation: RAT, LIVER, S9, AROCLOR 1254, Method: PREINCUBATION) “inactive; negative”.
With `c1cnc2c(c1)[C@@H]1O[C@@H]1C1OC21` (stereo not given in full), the mutagenic call is “inactive; negative” under setting [5] and “inactive; negative” (Test System: AMES SALMONELLA TYPHIMURIUM, Strain/Indicator: TA100, Metabolic Activation: RAT, LIVER, S-9, AROCLOR 1254 (10% OR 20%), Method: STANDARD PLATE).
Consider `[N-]=[N+]=NC[C@H](O)c1ccccc1`, for which, under “Test System: AMES SALMONELLA TYPHIMURIUM, Strain/Indicator: TA100, Metabolic Activation: RAT, LIVER, S-9, PCB, Method: PREINCUBATION”, the mutagenic call is “active; positive”.
Consider `CC(=O)Nc1ccc(C(=O)[C@H]2O[C@H]2c2ccccc2)cc1`, for which the mutagenic call runs as follows: under setting [2], “inactive; negative”; under setting [3], “inactive; negative”; under setting [5], “active; positive”; under setting [6], “active; positive”.
For `CCN(CC)c1ccc2cc(-c3nc4ccccc4n3C)c(=O)oc2c1`, the mutagenic call by setting is: under setting [11], “inactive; negative”; under setting [12], “inactive; negative”.
For the compound `O=S(=O)(O)CNc1ccc(N=Nc2cccnc2)cc1`, the mutagenic call was “inactive; negative” under setting [2]; “inactive; negative” under setting [3]; “inactive; negative” under setting [5]; “inactive; negative” under setting [6]; “inactive; negative” under setting [7]; “inactive; negative” under setting [8]. In addition, the mutagenic call by setting is: under setting [9], “inactive; negative”; under setting [10], “inactive; negative”; under setting [11], “inactive; negative”; under setting [12], “inactive; negative”.

Source of the values: PubChem BioAssay AID1259407 (Chemical Carcinogenesis Research Information System (CCRIS), 2018).
